Values quoted from earlier work, collected in US20210069174A1, “COMPOSITIONS AND METHODS FOR TREATMENT OF CYSTIC FIBROSIS” (Vertex Pharmaceuticals Incorporated, priority 2017, published 2021).

System: CFTR
Settings: CFTR modulator; disclosed in PCT Publication No. WO 2016/057572

For `CC(C)COc1cc(F)cc(-c2ccc(C(=O)NS(=O)(=O)c3ccccc3)c(N3C[C@@H](C)CC3(C)C)n2)c1` [Compound I, N-(benzenesulfonyl)-6-(3-fluoro-5-isobutoxy-phenyl)-2-[(4S)-2,2,4-trimethylpyrrolidin-1-yl]pyridine-3-carboxamide], the EC30 is listed as < 3000 nM.
